From US20260265329A1, “POLYPEPTIDE AND DERIVATIVE THEREOF, COMPOSITION, AND USE THEREOF” (HANGZHOU SCIWIND BIOSCIENCES CO., LTD., priority 2023, published 2026)
Starred links: 1 amine or outer side, 2 acyl side, 3 side chain; linkers in the order of their positions; H or OH if unused. Non-standard residues stand in square brackets, D forms with d. Residues, ends and D or L forms follow the SMILES beside them. *: point of attachment. C20 diacid = O=C(O)CCCCCCCCCCCCCCCCCCC(=O)*; γGlu = O=C(O)[C@H](CCC(=O)[*:2])N[*:1]; βAsp = O=C(O)[C@H](CC(=O)[*:2])N[*:1]; Hyp = O=C(O)[C@@H]1C[C@@H](O)CN1; Trx = NC[C@H]1CC[C@H](C(=O)O)CC1; AEEA = NCCOCCOCC(=O)O

Biological target: T1, human amylin receptors (Homo sapiens, UniProt O60896+P30988)
T1 construct: host or cells: CHO-K1/Ga15/AMY3 cells, further stably transfected with a CRE-luciferase plasmid
T1 sequence (P30988 25-474): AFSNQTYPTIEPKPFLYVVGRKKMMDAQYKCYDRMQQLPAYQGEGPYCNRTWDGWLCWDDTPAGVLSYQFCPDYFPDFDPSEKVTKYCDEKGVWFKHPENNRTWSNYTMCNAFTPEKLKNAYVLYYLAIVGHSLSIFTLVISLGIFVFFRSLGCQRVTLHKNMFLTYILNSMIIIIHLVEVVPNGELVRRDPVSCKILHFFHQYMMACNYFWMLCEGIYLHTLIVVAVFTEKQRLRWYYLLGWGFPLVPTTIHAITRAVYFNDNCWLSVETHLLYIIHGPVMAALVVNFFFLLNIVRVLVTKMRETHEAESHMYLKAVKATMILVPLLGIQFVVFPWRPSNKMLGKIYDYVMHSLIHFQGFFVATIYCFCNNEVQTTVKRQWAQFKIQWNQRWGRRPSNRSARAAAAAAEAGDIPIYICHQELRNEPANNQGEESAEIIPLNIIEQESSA
T1 sequence (O60896 24-148 partner): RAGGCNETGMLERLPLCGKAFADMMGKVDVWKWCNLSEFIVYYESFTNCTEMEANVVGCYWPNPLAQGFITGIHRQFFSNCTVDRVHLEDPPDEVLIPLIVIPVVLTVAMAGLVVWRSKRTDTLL
Test: Luciferase assay in stably transfected amylin receptor/CRE-luc CHO cell line
Assay type: cell-based
Conditions: for Relative activity: EC50 ratio of Cagrilintide to the compound, Cagrilintide 100%; for EC50: amylin receptor/CRE-luc CHO cells, 24 hours incubation, luminescence

Row | Compound | Relative activity [%] | EC50 [nM]
1 | CC[C@H](C)[C@H](NC(=O)[C@H](CC(=O)O)NC(=O)[C@H](CCCNC(=N)N)NC(=O)[C@H](CC(=O)O)NC(=O)[C@H](CCCNC(=N)N)NC(=O)[C@H](CC(=O)O)NC(=O)[C@@H](NC(=O)[C@H](Cc1ccccc1)NC(=O)[C@H](Cc1c[nH]cn1)NC(=O)[C@H](CCCNC(=N)N)NC(=O)[C@H](CC(C)C)NC(=O)[C@H](Cc1ccccc1)NC(=O)[C@H](CC(=O)O)NC(=O)[C@H](C)NC(=O)[C@H](CC(C)C)NC(=O)[C@H](CCCNC(=N)N)NC(=O)[C@H](CCC(N)=O)NC(=O)[C@@H](NC(=O)[C@H](C)NC(=O)[C@H](C)NC(=O)[C@@H](NC(=O)[C@H](CO)NC(=O)[C@H](CC(C)C)NC(=O)[C@H](CCC(N)=O)NC(=O)[C@H](CO)NC(=O)[C@H](C)NC(=O)[C@H](CCC(=O)O)NC(=O)CCCCCCCCCCCCCCCCCCC(=O)O)[C@@H](C)O)[C@@H](C)O)[C@@H](C)O)C(=O)N[C@@H](CC(C)C)C(=O)N1CCC[C@H]1C(=O)N1CCC[C@H]1C(=O)N[C@H](C(=O)N[C@@H](CC(N)=O)C(=O)N[C@H](C(=O)NCC(=O)N[C@@H](CO)C(=O)N[C@@H](CC(N)=O)C(=O)N[C@H](C(=O)N1CCC[C@H]1C(N)=O)[C@@H](C)O)C(C)C)[C@@H](C)O [M11] ({C20 diacid}-EASQLSTAATQRLADFLRHFTDRDRDILPPTNVGSNTP-NH2) | 110 | 0.004
2 | CC[C@H](C)[C@H](NC(=O)[C@H](CC(=O)O)NC(=O)[C@H](CCCNC(=N)N)NC(=O)[C@H](CC(=O)O)NC(=O)[C@H](CCCNC(=N)N)NC(=O)[C@H](CC(=O)O)NC(=O)[C@@H](NC(=O)[C@H](Cc1ccccc1)NC(=O)[C@H](Cc1c[nH]cn1)NC(=O)[C@H](CCCNC(=N)N)NC(=O)[C@H](CC(C)C)NC(=O)[C@H](Cc1ccccc1)NC(=O)[C@H](CC(=O)O)NC(=O)[C@H](C)NC(=O)[C@H](CC(C)C)NC(=O)[C@H](CCCNC(=N)N)NC(=O)[C@H](CCC(N)=O)NC(=O)[C@@H](NC(=O)[C@H](C)NC(=O)[C@H](C)NC(=O)[C@@H](NC(=O)[C@H](CO)NC(=O)[C@H](CC(C)C)NC(=O)[C@H](CCC(N)=O)NC(=O)[C@H](CO)NC(=O)[C@H](C)NC(=O)COCCOCCNC(=O)COCCOCCNC(=O)CC[C@H](NC(=O)CCCCCCCCCCCCCCCCCCC(=O)O)C(=O)O)[C@@H](C)O)[C@@H](C)O)[C@@H](C)O)C(=O)N[C@@H](CC(C)C)C(=O)N1CCC[C@H]1C(=O)N1CCC[C@H]1C(=O)N[C@H](C(=O)N[C@@H](CC(N)=O)C(=O)N[C@H](C(=O)NCC(=O)N[C@@H](CO)C(=O)N[C@@H](CC(N)=O)C(=O)N[C@H](C(=O)N1CCC[C@H]1C(N)=O)[C@@H](C)O)C(C)C)[C@@H](C)O [M16] ({C20 diacid-γGlu-AEEA-AEEA}-ASQLSTAATQRLADFLRHFTDRDRDILPPTNVGSNTP-NH2) | 58 | 0.042
3 | CC[C@H](C)[C@H](NC(=O)[C@H](CC(=O)O)NC(=O)[C@H](CCCNC(=N)N)NC(=O)[C@H](CC(=O)O)NC(=O)[C@H](CCCNC(=N)N)NC(=O)[C@H](CC(=O)O)NC(=O)[C@@H](NC(=O)[C@H](Cc1ccccc1)NC(=O)[C@H](Cc1c[nH]cn1)NC(=O)[C@H](CCCNC(=N)N)NC(=O)[C@H](CC(C)C)NC(=O)[C@H](Cc1ccccc1)NC(=O)[C@H](CC(=O)O)NC(=O)[C@H](C)NC(=O)[C@H](CC(C)C)NC(=O)[C@H](CCCNC(=N)N)NC(=O)[C@H](CCC(N)=O)NC(=O)[C@@H](NC(=O)[C@H](C)NC(=O)[C@H](C)NC(=O)[C@@H](NC(=O)[C@H](CO)NC(=O)[C@H](CC(C)C)NC(=O)[C@H](CCC(N)=O)NC(=O)[C@H](CO)NC(=O)[C@H](C)NC(=O)[C@H]1CC[C@H](CNC(=O)CCCCCCCCCCCCCCCCCCC(=O)O)CC1)[C@@H](C)O)[C@@H](C)O)[C@@H](C)O)C(=O)N[C@@H](CC(C)C)C(=O)N1CCC[C@H]1C(=O)N1CCC[C@H]1C(=O)N[C@H](C(=O)N[C@@H](CC(N)=O)C(=O)N[C@H](C(=O)NCC(=O)N[C@@H](CO)C(=O)N[C@@H](CC(N)=O)C(=O)N[C@H](C(=O)N1CCC[C@H]1C(N)=O)[C@@H](C)O)C(C)C)[C@@H](C)O [M14] ({C20 diacid-Trx}-ASQLSTAATQRLADFLRHFTDRDRDILPPTNVGSNTP-NH2) | 136 | –

Results, then the compound that gave them:

Row | Relative activity [%] | EC50 [nM] | Compound
4 | 25 | – | CC[C@H](C)[C@H](NC(=O)[C@H](CC(=O)O)NC(=O)[C@H](CCCNC(=N)N)NC(=O)[C@H](CC(=O)O)NC(=O)[C@H](CCCNC(=N)N)NC(=O)[C@H](CC(=O)O)NC(=O)[C@@H](NC(=O)[C@H](Cc1ccccc1)NC(=O)[C@H](Cc1c[nH]cn1)NC(=O)[C@H](CCCNC(=N)N)NC(=O)[C@H](CC(C)C)NC(=O)[C@H](Cc1ccccc1)NC(=O)[C@H](CC(=O)O)NC(=O)[C@H](C)NC(=O)[C@H](CC(C)C)NC(=O)[C@H](CCCNC(=N)N)NC(=O)[C@H](CCC(N)=O)NC(=O)[C@@H](NC(=O)[C@H](C)NC(=O)[C@H](C)NC(=O)[C@@H](NC(=O)[C@H](CO)NC(=O)[C@H](CC(C)C)NC(=O)[C@H](CCC(N)=O)NC(=O)[C@H](CO)NC(=O)[C@H](C)NC(=O)COCCOCCNC(=O)COCCOCCNC(=O)COCCOCCNC(=O)COCCOCCNC(=O)COCCOCCNC(=O)COCCOCCNC(=O)CC[C@H](NC(=O)CCCCCCCCCCCCCCCCCCC(=O)O)C(=O)O)[C@@H](C)O)[C@@H](C)O)[C@@H](C)O)C(=O)N[C@@H](CC(C)C)C(=O)N1CCC[C@H]1C(=O)N1CCC[C@H]1C(=O)N[C@H](C(=O)N[C@@H](CC(N)=O)C(=O)N[C@H](C(=O)NCC(=O)N[C@@H](CO)C(=O)N[C@@H](CC(N)=O)C(=O)N[C@H](C(=O)N1CCC[C@H]1C(N)=O)[C@@H](C)O)C(C)C)[C@@H](C)O [M25] ({C20 diacid-γGlu-AEEA-AEEA-AEEA-AEEA-AEEA-AEEA}-ASQLSTAATQRLADFLRHFTDRDRDILPPTNVGSNTP-NH2)
5 | 78 | 0.064 | CC[C@H](C)[C@H](NC(=O)[C@@H]1CCCN1C(=O)[C@H](CCCCN)NC(=O)[C@H](CC(C)C)NC(=O)[C@H](CC(N)=O)NC(=O)[C@H](CC(N)=O)NC(=O)[C@H](CO)NC(=O)[C@H](CO)NC(=O)[C@H](Cc1c[nH]cn1)NC(=O)[C@H](CCCNC(=N)N)NC(=O)[C@H](CC(C)C)NC(=O)[C@H](Cc1ccccc1)NC(=O)[C@H](CC(=O)O)NC(=O)[C@H](C)NC(=O)[C@H](CC(C)C)NC(=O)[C@H](CCCNC(=N)N)NC(=O)[C@H](CCC(N)=O)NC(=O)[C@@H](NC(=O)[C@H](C)NC(=O)[C@H](C)NC(=O)[C@@H](NC(=O)[C@H](CO)NC(=O)[C@H](CC(C)C)NC(=O)[C@H](CCC(N)=O)NC(=O)[C@H](CO)NC(=O)[C@H](C)NC(=O)C[C@H](NC(=O)CCCCCCCCCCCCCCCCCCC(=O)O)C(=O)O)[C@@H](C)O)[C@@H](C)O)C(=O)N[C@@H](CC(C)C)C(=O)N1CCC[C@H]1C(=O)N1CCC[C@H]1C(=O)N[C@H](C(=O)N[C@@H](CC(N)=O)C(=O)N[C@H](C(=O)NCC(=O)N[C@@H](CO)C(=O)N[C@@H](CC(N)=O)C(=O)N[C@H](C(=O)N1C[C@H](O)C[C@H]1C(N)=O)[C@@H](C)O)C(C)C)[C@@H](C)O [M27] ({C20 diacid-βAsp}-ASQLSTAATQRLADFLRHSSNNLKPILPPTNVGSNT[Hyp]-NH2)
6 | 110 | – | CC[C@H](C)[C@H](NC(=O)[C@H](CC(=O)O)NC(=O)[C@H](CCCNC(=N)N)NC(=O)[C@H](CC(=O)O)NC(=O)[C@H](CCCNC(=N)N)NC(=O)[C@H](CC(=O)O)NC(=O)[C@@H](NC(=O)[C@H](Cc1ccccc1)NC(=O)[C@H](Cc1c[nH]cn1)NC(=O)[C@H](CCCNC(=N)N)NC(=O)[C@H](CC(C)C)NC(=O)[C@H](Cc1ccccc1)NC(=O)[C@H](CC(=O)O)NC(=O)[C@H](C)NC(=O)[C@H](CC(C)C)NC(=O)[C@H](CCCNC(=N)N)NC(=O)[C@H](CCC(N)=O)NC(=O)[C@@H](NC(=O)[C@H](C)NC(=O)[C@H](C)NC(=O)[C@@H](NC(=O)[C@H](CO)NC(=O)[C@H](CC(C)C)NC(=O)[C@H](CCC(N)=O)NC(=O)[C@H](CO)NC(=O)[C@H](C)NC(=O)COCCOCCNC(=O)COCCOCCNC(=O)C[C@H](NC(=O)CCCCCCCCCCCCCCCCCCC(=O)O)C(=O)O)[C@@H](C)O)[C@@H](C)O)[C@@H](C)O)C(=O)N[C@@H](CC(C)C)C(=O)N1CCC[C@H]1C(=O)N1CCC[C@H]1C(=O)N[C@H](C(=O)N[C@@H](CC(N)=O)C(=O)N[C@H](C(=O)NCC(=O)N[C@@H](CO)C(=O)N[C@@H](CC(N)=O)C(=O)N[C@H](C(=O)N1CCC[C@H]1C(N)=O)[C@@H](C)O)C(C)C)[C@@H](C)O [M18] ({C20 diacid-βAsp-AEEA-AEEA}-ASQLSTAATQRLADFLRHFTDRDRDILPPTNVGSNTP-NH2)
